From PubChem BioAssay (NCI)
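GI50 is the concentration that inhibits growth by half. TGI marks complete inhibition of growth.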

Key:
Assay in all cases: inhibition of tumour cell growth, NCI panel, 384-well format
[1] = tested on: 786-0 renal
[2] = tested on: A498 renal
[3] = tested on: A549 NSCLC
[4] = tested on: ACHN renal
[5] = tested on: BT-549 breast
[6] = tested on: CAKI-1 renal
[7] = tested on: CCRF-CEM leukemia
[8] = tested on: COLO 205 colon
[9] = tested on: DU-145 prostate
[10] = tested on: EKVX NSCLC
[11] = tested on: HCC-2998 colon
[12] = tested on: HCT-116 colon
[13] = tested on: HCT-15 colon
[14] = tested on: HL-60(TB) leukemia
[15] = tested on: HOP-62 NSCLC
[16] = tested on: HOP-92 NSCLC
[17] = tested on: HS 578T breast
[18] = tested on: HT29 colon
[19] = tested on: IGROV1 ovarian
[20] = tested on: K-562 leukemia
[21] = tested on: KM12 colon
[22] = tested on: LOX IMVI melanoma
[23] = tested on: M14 melanoma
[24] = tested on: MALME-3M melanoma
[25] = tested on: MCF7 breast
[26] = tested on: MDA-MB-435 melanoma
[27] = tested on: MDA-MB-468 breast
[28] = tested on: MOLT-4 leukemia
[29] = tested on: NCI-H226 lung
[30] = tested on: NCI-H23 lung
[31] = tested on: NCI-H322M lung
[32] = tested on: NCI-H460 NSCLC
[33] = tested on: NCI-H522 lung
[34] = tested on: NCI/ADR-RES ovarian
[35] = tested on: OVCAR-3 ovarian
[36] = tested on: OVCAR-4 ovarian
[37] = tested on: OVCAR-8 ovarian
[38] = tested on: PC-3 prostate
[39] = tested on: RPMI-8226 leukemia
[40] = tested on: RXF 393 renal
[41] = tested on: SF-268 CNS
[42] = tested on: SF-295 CNS
[43] = tested on: SF-539 CNS
[44] = tested on: SK-MEL-2 melanoma
[45] = tested on: SK-MEL-28 melanoma
[46] = tested on: SK-MEL-5 melanoma
[47] = tested on: SK-OV-3 ovarian
[48] = tested on: SN12C renal
[49] = tested on: SNB-19 CNS
[50] = tested on: SNB-75 CNS
[51] = tested on: SW-620 colon
[52] = tested on: TK-10 renal
[53] = tested on: U251 glioblastoma
[54] = tested on: UACC-257 melanoma
[55] = tested on: UACC-62 melanoma

## CC(C)N=C(N)/N=C(\N)Nc1ccc2ccc3ccccc3c2c1
[1]
  GI50: 1750 nM
  TGI: 3140 nM
[2]
  GI50: 1560 nM
  TGI: 2910 nM
[3]
  GI50: 1730 nM
  TGI: 3140 nM
[4]
  GI50: 1590 nM
  TGI: 2950 nM
[5]
  GI50: 1490 nM
  TGI: 2830 nM
[6]
  GI50: 1480 nM
  TGI: 2820 nM
[7]
  GI50: 1440 nM
  TGI: 2770 nM
[8]
  GI50: 1760 nM
  TGI: 3160 nM
[9]
  GI50: 1790 nM
  TGI: 3230 nM
[10]
  GI50: 1660 nM
  TGI: 3060 nM
[11]
  GI50: 1400 nM
  TGI: 2710 nM
[12]
  GI50: 1710 nM
  TGI: 3140 nM
[13]
  GI50: 1670 nM
  TGI: 3070 nM
[14]
  GI50: 1410 nM
  TGI: 2720 nM
[15]
  GI50: 2070 nM
  TGI: 3510 nM
[16]
  GI50: 1560 nM
  TGI: 2900 nM
[17]
  GI50: 1720 nM
  TGI: 3100 nM
[18]
  GI50: 1710 nM
  TGI: 3130 nM
[19]
  GI50: 1020 nM
  TGI: 2210 nM
[20]
  GI50: 1890 nM
  TGI: 3300 nM
[21]
  GI50: 1820 nM
  TGI: 3250 nM
[22]
  GI50: 1560 nM
  TGI: 2920 nM
[23]
  GI50: 1890 nM
  TGI: 3300 nM
[24]
  GI50: 1430 nM
  TGI: 2750 nM
[25]
  GI50: 507 nM
  TGI: 1850 nM
[26]
  GI50: 1730 nM
  TGI: 3120 nM
[27]
  GI50: 242 nM
  TGI: 1470 nM
[28]
  GI50: 1360 nM
  TGI: 2650 nM
[29]
  GI50: 1640 nM
  TGI: 3010 nM
[30]
  GI50: 1530 nM
  TGI: 2860 nM
[31]
  GI50: 1840 nM
  TGI: 3250 nM
[32]
  GI50: 1750 nM
  TGI: 3170 nM
[33]
  GI50: 1560 nM
  TGI: 2910 nM
[34]
  GI50: 10000 nM
  TGI: 21800 nM
[35]
  GI50: 1600 nM
  TGI: 2950 nM
[36]
  GI50: 1300 nM
  TGI: 2580 nM
[37]
  GI50: 1700 nM
  TGI: 3100 nM
[38]
  GI50: 1520 nM
  TGI: 2870 nM
[39]
  GI50: 1720 nM
  TGI: 3100 nM
[40]
  GI50: 1580 nM
  TGI: 2930 nM
[41]
  GI50: 1870 nM
  TGI: 3290 nM
[42]
  GI50: 1650 nM
  TGI: 3020 nM
[43]
  GI50: 1740 nM
  TGI: 3130 nM
[44]
  GI50: 1840 nM
  TGI: 3240 nM
[45]
  GI50: 1850 nM
  TGI: 3270 nM
[46]
  GI50: 1110 nM
  TGI: 2330 nM
[47]
  GI50: 1420 nM
  TGI: 2730 nM
[48]
  GI50: 1650 nM
  TGI: 3020 nM
[49]
  GI50: 1760 nM
  TGI: 3160 nM
[50]
  GI50: 1610 nM
  TGI: 2960 nM
[51]
  GI50: 1800 nM
  TGI: 3230 nM
[52]
  GI50: 1730 nM
  TGI: 3110 nM
[53]
  GI50: 1790 nM
  TGI: 3190 nM
[54]
  GI50: 1480 nM
  TGI: 2820 nM
[55]
  GI50: 1490 nM
  TGI: 2830 nM
